Assays:
diabetic retinopathy = conditions: humans, mainly in the 1980s; cited from earlier work
humans = experiment: administration to humans, tolerability; design: species or system human; conditions: in vivo
in vivo [1] = conditions: mouse, iv
in vivo [2] = conditions: dog, iv
[3] = accepted value; cited from earlier work

O=C1NC(=O)[C@@]2(CCOc3ccc(F)cc32)N1 [sorbinil]
efficacy in slowing progress of diabetic retinopathy and other diabetic complications (diabetic retinopathy): some efficacy
toxicity / tolerability in patients (diabetic retinopathy): highly toxic

O=S(=O)([O-])CCSSCCS(=O)(=O)[O-].[Na+].[Na+]
dose administered with no adverse effects (humans): exceeding 15 g/m^2
NOAEL (in vivo [1]): > 3750 mg/kg
NOAEL (in vivo [2]): > 3750 mg/kg

[Cl-].[Na+] [common table salt]
oral LD50 [3]: 3750 mg/kg
